Measurements taken from patent publication US9181577B2, “Treatment of chronic pelvic pain syndrome” (Northwestern University, priority 2010, dated 2015).

Each compound was assayed on pelvic pain behavior in EAP NOD mice (assay: Mast cell function inhibitors on established pelvic pain behavior in EAP model (von Frey tactile allodynia)). Details: 10 mg/kg each drug, intraperitoneal, at day 10 after PAg injection; tested one hour after drug administration.
Assay type: in vivo
Description: Mice injected with rat prostate antigen (PAg) were tested at baseline and 10 days after injection for the development of pain behavior. Mice were treated at day 10 by intraperitoneal injection with saline (Control, A), 10 mg/kg each of cetrizine (H1, B), ranitidine (H2, C), Cromolyn sodium (MC stabilizer, D) or all three drugs (Combination, E) in a 200 μl volume. Following blinding of treatment and control groups, pelvic pain behavior was tested one hour after drug administration.
The experimental autoimmune prostatitis (EAP) model was selected for experiments conducted during development of embodiments of the present invention. Autoimmunity is one of the etiologies for patients with CPPS. Rat prostate antigen instillation in NOD mice provokes a chronic inflammation that is multifocal and evenly distributed in all the prostatic lobes. Pelvic pain was examined in NOD and C57BL/6 (B6) mice using quantitative behavior testing methods to assess tactile sensitivity of the suprapubic region. […] When expressed as increase in pain from baseline there was an approximately 350% increase in pain behavior compared to sham controls (SEE FIG. 1). This indicates the development of chronic pelvic pain in EAP mice and is the first report of chronic pain symptoms in an animal model of prostatitis.
Pelvic pain behavior in the EAP model was inhibited following the establishment of pain. EAP was induced in NOD mice and pelvic pain behavior at baseline and 10 days after disease onset was measured. Mice were administered a mast cell stabilizer, cromolyn sodium; a histamine receptor 1 antagonist, cetirizine; a histamine receptor 2 antagonist, ranitidine; and a combination of all three pharmacological agents or saline as control. Pelvic pain behavior was tested one hour after drug administration.
With `CNC(=C[N+](=O)[O-])NCCSCc1ccc(CN(C)C)o1` [ranitidine] the “reduction of pain behavior” value was 15.9%.
`O=C(O)c1cc(=O)c2c(OCC(O)COc3cccc4oc(C(=O)O)cc(=O)c34)cccc2o1` [cromolyn sodium] was tested, and the “reduction of pain behavior” value was 39.6%.
With `O=C(O)COCCN1CCN(C(c2ccccc2)c2ccc(Cl)cc2)CC1` (stereo not drawn) [cetirizine] the “reduction of pain behavior” value was 13.6%.
